Data: patent publication US20060228313A1, “Method of cosmetic depigmentation care by applying at least one aurone” (Coletica, priority 2005, published 2006)

Target: T1, Human tyrosinase (Homo sapiens, UniProt P14679)
T1 construct: Normal human melanocytes (originating from abdominal plasty) are sown in a 24-well plate; endogenous in cells; host or cells: normal human melanocytes (abdominal plasty; donors of light, brown and black phototype)
T1 sequence (P14679 19-529): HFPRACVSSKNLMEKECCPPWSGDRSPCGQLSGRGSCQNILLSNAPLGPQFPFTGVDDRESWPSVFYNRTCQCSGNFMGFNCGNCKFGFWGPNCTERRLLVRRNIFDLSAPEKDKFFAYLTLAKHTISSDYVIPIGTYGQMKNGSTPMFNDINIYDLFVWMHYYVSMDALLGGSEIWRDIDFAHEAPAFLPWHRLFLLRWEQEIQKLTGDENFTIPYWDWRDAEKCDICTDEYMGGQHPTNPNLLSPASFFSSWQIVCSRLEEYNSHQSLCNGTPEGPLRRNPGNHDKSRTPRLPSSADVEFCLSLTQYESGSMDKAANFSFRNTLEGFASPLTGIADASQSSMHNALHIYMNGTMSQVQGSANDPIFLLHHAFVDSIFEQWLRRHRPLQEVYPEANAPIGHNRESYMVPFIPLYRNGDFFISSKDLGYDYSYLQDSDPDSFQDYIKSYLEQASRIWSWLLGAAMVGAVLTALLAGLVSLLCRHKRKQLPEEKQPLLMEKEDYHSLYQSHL
Assay: Inhibition of human tyrosinase in a monolayer after application of the actives on normal human melanocytes
Type: cell-based
Conditions: for Inhibition of human tyrosinase after application on normal human melanocytes, percentage inhibition: 24 hours
Description: Normal human melanocytes (originating from abdominal plasty) are sown in a 24-well plate at the rate of 80,000 cells per well. They are cultivated up to confluence and the actives are applied for 24 hours in the culture media. After 24 hours, the media are removed and the melanocytes are picked up by mechanical action. An extraction is made by heat shock and the supernatants are then recovered and then incubated with MBTH (Sigma) and L-Dopa (Sigma). The OD at 490 nm is measured after 30 minutes, and the inhibition is of the tyrosinase is calculated by comparing the OD at 490 nm to the protein level (measured in each culture well) of the test with respect to the ratio: OD 490 nm/concentration of protein of the negative control (non-treated control). […]

Row | Inhibition of human tyrosinase on normal human melanocytes, result in words (model of Example 15) | Inhibition of human tyrosinase after application on normal human melanocytes, percentage inhibition (10^−4M) | Inhibition of human tyrosinase after application on normal human melanocytes, percentage inhibition (10^−5M) | SMILES
1 | do not inhibit tyrosinase | – | – | O=c1cc(-c2ccc(O)cc2)oc2cc(O)cc(O)c12 [Apigenin, reference compound]
2 | – | 0% | 23.9% | CCc1ccc(/C=C2\Oc3cc(O)ccc3C2=O)cc1 [Example 3a, (Z)-2-(4′-Ethyl)Benzylidene-6-Hydroxybenzofuran-3(2H)-one]
3 | – | 0% | 0% | CCc1ccccc1/C=C1\Oc2cc(O)ccc2C1=O [Example 3b, (Z)-2-(2′-Ethyl)Benzylidene-6-Hydroxybenzofuran-3(2H)-one]
4 | – | 0% | 1.44% | COc1cc(OC)c2c(c1)O/C(=C\c1ccc(S(=O)(=O)O)cc1)C2=O [Example 5e, (Z)-4,6-dimethoxy-2-(4′-sulfonatebenzylidene)benzofuran-3(2H)-one]
5 | – | 9.36% | 2.88% | COc1cc(OC)c2c(c1)O/C(=C\c1ccc(S(=O)(=O)O)cc1S(=O)(=O)O)C2=O [Example 5f, (Z)-4,6-dimethoxy-2-(2′,4′-disulfonatebenzylidene)benzofuran-3(2H)-one]
6 | – | 19.5% | 6.4% | COc1cc(OC)c2c(c1)O/C(=C\c1ccco1)C2=O [Example 5m, (Z)-4,6-Dimethoxy-2-[(furan)methylene]benzofuran-3(2H)-one]
7 | – | 7.8% | 0% | CCc1ccc(/C=C2\Oc3cc(OC)cc(OC)c3C2=O)o1 [Example 5n, (Z)-4,6-Dimethoxy-2-[(5-ethylfuran)methylene]benzofuran-3(2H)-one]
8 | – | 23.2% | 12.1% | COc1cc(OC)c2c(c1)O/C(=C\c1cc(C)c(C)o1)C2=O [Example 5o, (Z)-4,6-Dimethoxy-2-[(4,5-dimethylfuran)methylene]benzofuran-3(2H)-one]
9 | – | 31.3% | 6.4% | COc1cc(OC)c2c(c1)O/C(=C\c1cccs1)C2=O [Example 5p, (Z)-4,6-Dimethoxy-2-[(thiophene)methylene]benzofuran-3(2H)-one]
10 | – | 4.8% | 0% | COc1cc(OC)c2c(c1)O/C(=C\c1ccc(C)s1)C2=O [Example 5q, (Z)-4,6-Dimethoxy-2-[(5-methylthiophene)methylene]benzofuran-3(2H)-one]
11 | – | 11.9% | 2.1% | CCc1ccc(/C=C2\Oc3cc(OC)cc(OC)c3C2=O)s1 [Example 5r, (Z)-4,6-Dimethoxy-2-[(5-ethylthiophene)methylene]benzofuran-3(2H)-one]
12 | – | 5.1% | 0% | COc1cc(OC)c2c(c1)O/C(=C\c1[nH]c(C)cc1C)C2=O [Example 5t, (Z)-4,6-Dimethoxy-2-[(3,5-dimethylpyrrole)methylene]benzofuran-3(2H)-one]
13 | – | 0% | 4.83% | O=C1/C(=C/c2ccc(S(=O)(=O)O)cc2)Oc2cc(O)cc(O)c21 [Example 7e]
14 | – | 5.43% | 26.88% | CCCc1ccc(/C=C2\Oc3cc(O)cc(O)c3C2=O)cc1 [Example 7h]
15 | – | 0% | 31.86% | CC(C)c1ccc(/C=C2\Oc3cc(O)cc(O)c3C2=O)cc1 [Example 7i]
16 | – | 0% | 25.1% | CC(C)(C)c1ccc(/C=C2\Oc3cc(O)cc(O)c3C2=O)cc1 [Example 7k]
17 | – | 0% | 6.1% | CCc1ccccc1/C=C1\Oc2cc(O)cc(O)c2C1=O [Example 7l]
18 | – | 23.6% | 6.4% | O=C1/C(=C/c2ccco2)Oc2cc(O)cc(O)c21 [Example 7m, (Z)-4,6-Dihydroxy-2-[(furan)methylene]benzofuran-3(2H)-one]
19 | – | 28.5% | 13.4% | CCc1ccc(/C=C2\Oc3cc(O)cc(O)c3C2=O)o1 [Example 7n, (Z)-4,6-Dihydroxy-2-[(5-ethylfuran)methylene]benzofuran-3(2H)-one]
20 | – | 13.6% | 4.5% | Cc1cc(/C=C2\Oc3cc(O)cc(O)c3C2=O)oc1C [Example 7o, (Z)-4,6-Dihydroxy-2-[(4,5-dimethylfuran)methylene]benzofuran-3(2H)-one]
21 | – | 16.4% | 7% | Cc1ccc(/C=C2\Oc3cc(O)cc(O)c3C2=O)s1 [Example 7q, (Z)-4,6-Dihydroxy-2-[(5-methylthiophene)methylene]benzofuran-3(2H)-one]
22 | – | 13.8% | 0% | CCc1ccc(/C=C2\Oc3cc(O)cc(O)c3C2=O)s1 [Example 7r, (Z)-4,6-Dihydroxy-2-[(5-ethylthiophene)methylene]benzofuran-3(2H)-one]

Row | SMILES | Inhibition of human tyrosinase on normal human melanocytes, result in words (model of Example 15) | Inhibition of human tyrosinase after application on normal human melanocytes, percentage inhibition (10^−4M) | Inhibition of human tyrosinase after application on normal human melanocytes, percentage inhibition (10^−5M)
23 | COc1cc(OC)c2c(c1)O/C(=C\c1ccc[nH]1)C2=O [Example 5s, (Z)-4,6-Dimethoxy-2-[(pyrrole)methylene]benzofuran-3(2H)-one] | – | 13.7% | 0%
24 | O=C1/C(=C/c2cccs2)Oc2cc(O)cc(O)c21 [Example 7p, (Z)-4,6-Dihydroxy-2-[(thiophene)methylene]benzofuran-3(2H)-one] | – | 35.2% | 15.3%
25 | O=C1/C(=C/c2ccc[nH]2)Oc2cc(O)cc(O)c21 [Example 7s, (Z)-4,6-Dihydroxy-2-[(pyrrole)methylene]benzofuran-3(2H)-one] | – | 22.8% | 9.1%
